The experiment addresses T1, human PKCθ full length enzyme (Homo sapiens, UniProt Q04759).
T1 construct: human PKCθ full length enzyme (Panvera Catalog No. P2996); purchased Panvera P2996
Description: PKCθ IMAP Assay. The format is biochemical. Conditions: average value when one or more samples were tested; ATP 6 uM, PKCθ 1 nM. Summed up: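 IMAP fluorescence polarization after 20 min with binding beads measured phosphorylation of 100 nM 5FAM-peptide. Reactions held 1 nM full-length human PKCθ, 6 uM ATP, 5% DMSO and DTT-containing buffer, 25 min at room temperature. Compounds tested as 2:1 serial dilutions; controls lacked ATP or enzyme.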

pIC50: −log10 of the molar value.

T1 sequence (Q04759 whole entry): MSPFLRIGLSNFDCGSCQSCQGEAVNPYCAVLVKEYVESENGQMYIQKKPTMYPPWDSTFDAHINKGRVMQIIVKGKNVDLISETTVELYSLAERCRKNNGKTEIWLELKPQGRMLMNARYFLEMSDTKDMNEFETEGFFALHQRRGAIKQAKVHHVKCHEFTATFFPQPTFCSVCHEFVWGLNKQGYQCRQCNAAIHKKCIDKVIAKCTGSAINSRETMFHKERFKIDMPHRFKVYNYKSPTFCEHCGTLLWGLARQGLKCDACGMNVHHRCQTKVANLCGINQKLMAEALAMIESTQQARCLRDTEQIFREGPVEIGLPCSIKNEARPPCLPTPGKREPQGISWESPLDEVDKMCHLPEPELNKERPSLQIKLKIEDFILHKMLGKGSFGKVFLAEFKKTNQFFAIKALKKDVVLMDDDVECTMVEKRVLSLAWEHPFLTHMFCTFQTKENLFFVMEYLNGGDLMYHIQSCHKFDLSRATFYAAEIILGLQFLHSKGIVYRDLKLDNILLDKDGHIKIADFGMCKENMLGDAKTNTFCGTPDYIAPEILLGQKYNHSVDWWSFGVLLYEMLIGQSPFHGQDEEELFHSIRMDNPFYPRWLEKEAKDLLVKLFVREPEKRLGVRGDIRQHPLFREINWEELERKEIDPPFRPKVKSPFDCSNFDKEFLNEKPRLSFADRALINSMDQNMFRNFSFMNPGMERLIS

A word on the pIC50: it is −log10 of the IC50, conventionally taken in molar units. A lower pIC50 goes with a large IC50. `N#Cc1cnc2sc(-c3cccc(CN4CC[C@H](O)C4)c3)cc2c1Nc1ccc2[nH]ccc2c1` [Compound 171, 2-(3-{[(3S)-3-hydroxypyrrolidin-1-yl]methyl}phenyl)-4-(1H-indol-5-ylamino)thieno[2,3-b]pyridine-5-carbonitrile]: the pIC50 is 6.96.
The value for `COc1c(C=O)cccc1-c1cc2c(Nc3ccc4[nH]ccc4c3C)c(C#N)cnc2s1` [Compound 525, 2-(3-formyl-2-methoxyphenyl)-4-[(4-methyl-1H-indol-5-yl)amino]thieno[2,3-b]pyridine-5-carbonitrile] was 7.82; that for `COCCNC(=O)c1cc2c(Nc3ccc4[nH]ccc4c3C)c(C#N)cnc2s1` [Compound 262, 5-cyano-N-(2-methoxyethyl)-4-[(4-methyl-1H-indol-5-yl)amino]thieno[2,3-b]pyridine-2-carboxamide] was 7.04.
The result for `N#Cc1cnc2sc(-c3cccc(CNCCCN4CCOCC4)c3)cc2c1Nc1ccc2[nH]ccc2c1` [Compound 180, 4-(1H-indol-5-ylamino)-2-(3-{[(3-morpholin-4-ylpropyl)amino]methyl}phenyl)thieno[2,3-b]pyridine-5-carbonitrile] reads 6.96.
`CS(=O)(=O)Nc1ccc(-c2cc3c(Nc4ccc5[nH]ccc5c4)c(C#N)cnc3s2)cc1` [Compound 235, N-{4-[5-cyano-4-(1H-indol-5-ylamino)thieno[2,3-b]pyridin-2-yl]phenyl}methanesulfonamide] gave a pIC50 of 5.92.
On to `Cc1c(Nc2c(C#N)cnc3sc(C(=O)Nc4ccccc4)cc23)ccc2[nH]ccc12` [Compound 258, 5-cyano-4-[(4-methyl-1H-indol-5-yl)amino]-N-phenylthieno[2,3-b]pyridine-2-carboxamide], for which the pIC50 is 6.90.
Compound `N#Cc1cnc2sc(-c3ccccc3)cc2c1Nc1cnc2[nH]ccc2c1Cl` [Compound 524, 4-[(4-chloro-1H-pyrrolo[2,3-b]pyridin-5-yl)amino]-2-phenylthieno[2,3-b]pyridine-5-carbonitrile] had a negative logarithm of the IC50 (pIC50) of 7.32.
`COc1ccc(C=O)cc1-c1cc2c(Nc3ccc4[nH]ccc4c3C)c(C#N)cnc2s1` [Compound 338, 2-(5-formyl-2-methoxyphenyl)-4-[(4-methyl-1H-indol-5-yl)amino]thieno[2,3-b]pyridine-5-carbonitrile] gave a pIC50 of 7.85.
The result for `Cc1c(Nc2c(C#N)cnc3sc(/C=C/C(=O)N4CCNCC4)cc23)ccc2[nH]ccc12` [Compound 311, 4-[(4-methyl-1H-indol-5-yl)amino]-2-[(1E)-3-oxo-3-piperazin-1-ylprop-1-en-1-yl]thieno[2,3-b]pyridine-5-carbonitrile] reads 7.06; that for `COC(=O)c1cc2c(Nc3ccc4[nH]ccc4c3)c(C#N)cnc2s1` [Compound 246, methyl 5-cyano-4-(1H-indol-5-ylamino)thieno[2,3-b]pyridine-2-carboxylate], 6.36.
The value for `Cc1c(Nc2c(C#N)cnc3sc(-c4cccc(S(=O)(=O)N(C)C)c4)cc23)ccc2[nH]ccc12` [Compound 237, 3-{5-cyano-4-[(4-methyl-1H-indol-5-yl)amino]thieno[2,3-b]pyridin-2-yl}-N,N-dimethylbenzenesulfonamide] was 7.30; that for `Cc1c(Nc2c(C#N)cnc3sc(-c4cccc5[nH]ccc45)cc23)ccc2[nH]ccc12` [Compound 505, 2-(1H-indol-4-yl)-4-[(4-methyl-1H-indol-5-yl)amino]thieno[2,3-b]pyridine-5-carbonitrile] was 6.95; that for `N#Cc1cnc2sc(-c3cccc(CNCCOCCO)c3)cc2c1Nc1ccc2[nH]ccc2c1` [Compound 183, 2-[3-({[2-(2-hydroxyethoxy)ethyl]amino}methyl)phenyl]-4-(1H-indol-5-ylamino)thieno[2,3-b]pyridine-5-carbonitrile] was 7.10.
The value for `Cc1c(Nc2c(C#N)cnc3sc(-c4cccc(CN(C)C)c4)c(C)c23)ccc2[nH]ccc12` [Compound 458, 2-{3-[(dimethylamino)methyl]phenyl}-3-methyl-4-[(4-methyl-1H-indol-5-yl)amino]thieno[2,3-b]pyridine-5-carbonitrile] was 7.00.
The compound `Cc1c(Nc2c(C#N)cnc3sc(-c4ccc(O)cc4)cc23)ccc2[nH]ccc12` [Compound 441, 2-(4-hydroxyphenyl)-4-[(4-methyl-1H-indol-5-yl)amino]thieno[2,3-b]pyridine-5-carbonitrile] had a negative logarithm of the IC50 (pIC50) of 7.54. This pIC50 is 0.54 log units higher than that of the compound before.
For `Cc1c(Nc2c(C#N)cnc3sc(/C=C/C(=O)N4CCCC4)cc23)ccc2[nH]ccc12` [Compound 294, 4-[(4-methyl-1H-indol-5-yl)amino]-2-[(1E)-3-oxo-3-pyrrolidin-1-ylprop-1-en-1-yl]thieno[2,3-b]pyridine-5-carbonitrile], the pIC50 was 8.40.
The result for `Cc1c(Nc2c(C#N)cnc3sc(-c4cccc(NS(C)(=O)=O)c4)cc23)ccc2[nH]ccc12` [Compound 360, N-(3-{5-cyano-4-[(4-methyl-1H-indol-5-yl)amino]thieno[2,3-b]pyridin-2-yl}phenyl)methanesulfonamide] reads 7.64.
The value for `N#Cc1cnc2sc(-c3cccc(CN4CCC(O)CC4)c3)cc2c1Nc1ccc2[nH]ccc2c1` [Compound 176, 2-{3-[(4-hydroxypiperidin-1-yl)methyl]phenyl}-4-(1H-indol-5-ylamino) thieno[2,3-b]pyridine-5-carbonitrile] was 6.77; that for `CCc1c(Nc2c(C#N)cnc3sc(-c4ccccc4)cc23)ccc2[nH]ccc12` [Compound 126, 4-[(4-ethyl-1H-indol-5-yl)amino]-2-phenylthieno[2,3-b]pyridine-5-carbonitrile] was 6.08.
As to `CS(=O)(=O)c1ccc(-c2cc3c(Nc4ccc5[nH]ccc5c4)c(C#N)cnc3s2)cc1` [Compound 234, 4-(1H-indol-5-ylamino)-2-[4-(methylsulfonyl)phenyl]thieno[2,3-b]pyridine-5-carbonitrile], the pIC50 was 6.89.
The result for `Cc1c(Nc2c(C#N)cnc3sc(-c4cnc(N(C)C)nc4)cc23)ccc2[nH]ccc12` [Compound 331, 2-[2-(dimethylamino)pyrimidin-5-yl]-4-[(4-methyl-1H-indol-5-yl)amino]thieno[2,3-b]pyridine-5-carbonitrile] reads below 4.60; that for `CCOc1ccccc1-c1cc2c(Nc3ccc4[nH]ccc4c3C)c(C#N)cnc2s1` [Compound 332, 2-(2-ethoxyphenyl)-4-[(4-methyl-1H-indol-5-yl)amino]thieno[2,3-b]pyridine-5-carbonitrile], 6.36; that for `Cc1c(Nc2c(C#N)cnc3sc(-c4cccc(NS(=O)(=O)N(C)C)c4)cc23)ccc2[nH]ccc12` [Compound 509, N′-(3-{5-cyano-4-[(4-methyl-1H-indol-5-yl)amino]thieno[2,3-b]pyridin-2-yl}phenyl)-N,N-dimethylsulfamide], 7.29.
The compound `Cc1c(Nc2c(C#N)cnc3sc(C4CCN(Cc5ccccc5)C4)cc23)ccc2[nH]ccc12` (stereo not drawn) [Compound 479, 2-(1-benzylpyrrolidin-3-yl)-4-[(4-methyl-1H-indol-5-yl)amino]thieno[2,3-b]pyridine-5-carbonitrile] showed a pIC50 of 5.71.
The result for `N#Cc1cnc2sc(/C=C/c3ccc(F)cc3)cc2c1Nc1ccc2[nH]ccc2c1` [Compound 401, 2-[(E)-2-(4-fluorophenyl)vinyl]-4-(1H-indol-5-ylamino)thieno[2,3-b]pyridine-5-carbonitrile] reads 5.61; that for `CN(C)Cc1cc(-c2cc3c(Nc4ccc5[nH]ccc5c4)c(C#N)cnc3s2)cs1` [Compound 212, 2-{5-[(dimethylamino)methyl]-3-thienyl}-4-(1H-indol-5-ylamino)thieno[2,3-b]pyridine-5-carbonitrile], 7.43.
The value for `Cc1c(Nc2c(C#N)cnc3sc(-c4ccccc4OC[C@@H](C)O)cc23)ccc2[nH]ccc12` [Compound 490, 2-(2-{[(2R)-2-hydroxypropyl]-oxy}phenyl)-4-[(4-methyl-1H-indol-5-yl)amino]thieno[2,3-b]pyridine-5-carbonitrile] was 6.98; that for `Cc1c(Nc2c(C#N)cnc3sc(/C=C/C(=O)Nc4cccnc4)cc23)ccc2[nH]ccc12` [Compound 296, (2E)-3-{5-cyano-4-[(4-methyl-1H-indol-5-yl)amino]thieno[2,3-b]pyridin-2-yl}-N-pyridin-3-ylacrylamide] was 7.77.
The value for `CC(C)c1c(-c2cccc(CN(C)C)c2)sc2ncc(C#N)c(Nc3ccc4[nH]ccc4c3)c12` [Compound 516, 2-{3-[(dimethylamino)methyl]phenyl}-4-(1H-indol-5-ylamino)-3-isopropylthieno[2,3-b]pyridine-5-carbonitrile] was 5.92; that for `Cc1c(Nc2c(C#N)cnc3sc(/C=C/C(=O)N(C)C)cc23)ccc2[nH]ccc12` [Compound 305, (2E)-3-{5-cyano-4-[(4-methyl-1H-indol-5-yl)amino]thieno[2,3-b]pyridin-2-yl}-N,N-dimethylacrylamide] was 8.70; that for `COc1ccc(CN(C)C)cc1-c1sc2ncc(C#N)c(Nc3ccc4[nH]ccc4c3C)c2c1C` [Compound 459, 2-{5-[(dimethylamino)methyl]-2-methoxyphenyl}-3-methyl-4-[(4-methyl-1H-indol-5-yl)amino]thieno[2,3-b]pyridine-5-carbonitrile] was 6.61.
`N#Cc1cnc2sc(-c3cccc(CN4CCOCC4)c3)cc2c1Nc1ccc2[nH]ccc2c1` [Compound 146, 4-(1H-indol-5-ylamino)-2-[3-(morpholin-4-ylmethyl)phenyl]thieno[2,3-b]pyridine-5-carbonitrile]: the pIC50 is 6.26. This pIC50 lies 0.35 log units lower than the previous one.
`N#Cc1cnc2sc(C(=O)Nc3ccncc3)cc2c1Nc1ccc2[nH]ccc2c1` [Compound 252, 5-cyano-4-(1H-indol-5-ylamino)-N-pyridin-4-ylthieno[2,3-b]pyridine-2-carboxamide]: the negative-log IC50 (pIC50) was 6.02.

The values above are taken from US20070082880A1 (priority 2005, published 2007).
